# Experimental data reported in patent publication US12435044B2, “Pyridazinone herbicides and pyridazinone intermediates used to prepare a herbicide” (FMC Corporation, priority 2018, dated 2025).
# What was measured:
# Assay in all cases: Test J pre-/postemergence, mixtures of Cpd. No. 20 with (b15C2)
# Format in all cases: in vivo
# [1] = tested on: soybean (GLXMA; Glycine max, cv. Pioneer 35T58)
# Excerpt: (§1) This test evaluated the effect of mixtures of Cpd. No. 20 with (b15C2) on several plant species. Seeds of plant species selected from corn (ZEAMD; Zea mays, cv. ‘Pioneer 1184’), soybean (GLXMA; Glycine max, cv. Pioneer 35T58), giant foxtail (SETFA; Setaria faberi), palmer amaranth (AMAPA; Amaranthus palmeri), common waterhemp (AMATU; Amaranthus rudis), mare's tail (ERICA; Conyza canadensis), and common ragweed (AMBEL; Ambrosia artemisiifolia) were planted in pots containing Tama Silt Loam soil and treated preemergence with a directed soil spray using test chemicals formulated in a non-phytotoxic solvent mixture which included a surfactant.
# (§2) At the same time, plants selected from these crop and weed species were planted in pots containing Redi-Earth® planting medium (Scotts Company, 14111 Scottslawn Road, Marysville, Ohio 43041) comprising spaghnum peat moss, vermiculite, wetting agent and starter nutrients and treated postemergence with test chemicals formulated in the same manner. Plants ranged in height from 2 to 10 cm and were in the one- to two-leaf stage for the postemergence treatment. Treated plants and untreated controls were maintained in a greenhouse for approximately 14-21 d, after which time all treated plants were compared to untreated controls and visually evaluated for injury. Plant response ratings, summarized in Tables J1 & J2, are based on a 0 to 100 scale where 0 is no effect and 100 is complete control. A dash (-) response means no test result. Test results are presented as a mean of 4 reps.
# [2] = tested on: palmer amaranth (AMAPA; Amaranthus palmeri)
# Excerpt: as §1, §2
# [3] = tested on: corn (ZEAMD; Zea mays, cv. ‘Pioneer 1184’)
# Excerpt: as §1, §2
# [4] = tested on: common ragweed (AMBEL; Ambrosia artemisiifolia)
# Excerpt: as §1, §2
# [5] = tested on: common waterhemp (AMATU; Amaranthus rudis)
# Excerpt: as §1, §2
# [6] = tested on: giant foxtail (SETFA; Setaria faberi)
# Excerpt: as §1, §2
# [7] = tested on: mare's tail (ERICA; Conyza canadensis)
# Excerpt: as §1, §2
smiles,measurement,setting,value
"O=C(CCC(F)(F)F)c1c(Cl)cccc1Oc1ncc(Cl)cn1 [(b15C2), 1-[2-chloro-6-[(5-chloro-2-pyrimidinyl)oxy]phenyl]-4,4,4-trifluoro-1-butanone, reference compound]","GLXMA plant response rating, 0 to 100 scale","[1]; postemergence, 8 g a.i./ha",20
same,"GLXMA plant response rating, 0 to 100 scale","[1]; postemergence, 16 g a.i./ha",29
same,"GLXMA plant response rating, 0 to 100 scale","[1]; postemergence, 31 g a.i./ha",43
same,"GLXMA plant response rating, 0 to 100 scale","[1]; postemergence, 62 g a.i./ha",68
same,"GLXMA plant response rating, 0 to 100 scale","[1]; preemergence, 8 g a.i./ha",0
same,"GLXMA plant response rating, 0 to 100 scale","[1]; preemergence, 16 g a.i./ha",0
same,"GLXMA plant response rating, 0 to 100 scale","[1]; preemergence, 31 g a.i./ha",0
same,"GLXMA plant response rating, 0 to 100 scale","[1]; preemergence, 62 g a.i./ha",0
same,"AMAPA plant response rating, 0 to 100 scale","[2]; postemergence, 8 g a.i./ha",20
same,"AMAPA plant response rating, 0 to 100 scale","[2]; postemergence, 16 g a.i./ha",38
same,"AMAPA plant response rating, 0 to 100 scale","[2]; postemergence, 31 g a.i./ha",56
same,"AMAPA plant response rating, 0 to 100 scale","[2]; postemergence, 62 g a.i./ha",74
same,"AMAPA plant response rating, 0 to 100 scale","[2]; preemergence, 8 g a.i./ha",63
same,"AMAPA plant response rating, 0 to 100 scale","[2]; preemergence, 16 g a.i./ha",90
same,"AMAPA plant response rating, 0 to 100 scale","[2]; preemergence, 31 g a.i./ha",100
same,"AMAPA plant response rating, 0 to 100 scale","[2]; preemergence, 62 g a.i./ha",100
same,"ZEAMD plant response rating, 0 to 100 scale","[3]; postemergence, 8 g a.i./ha",3
same,"ZEAMD plant response rating, 0 to 100 scale","[3]; postemergence, 16 g a.i./ha",5
same,"ZEAMD plant response rating, 0 to 100 scale","[3]; postemergence, 31 g a.i./ha",9
same,"ZEAMD plant response rating, 0 to 100 scale","[3]; postemergence, 62 g a.i./ha",10
same,"ZEAMD plant response rating, 0 to 100 scale","[3]; preemergence, 8 g a.i./ha",0
same,"ZEAMD plant response rating, 0 to 100 scale","[3]; preemergence, 16 g a.i./ha",0
same,"ZEAMD plant response rating, 0 to 100 scale","[3]; preemergence, 31 g a.i./ha",0
same,"ZEAMD plant response rating, 0 to 100 scale","[3]; preemergence, 62 g a.i./ha",0
same,"AMBEL plant response rating, 0 to 100 scale","[4]; postemergence, 8 g a.i./ha",5
same,"AMBEL plant response rating, 0 to 100 scale","[4]; postemergence, 16 g a.i./ha",3
same,"AMBEL plant response rating, 0 to 100 scale","[4]; postemergence, 31 g a.i./ha",10
same,"AMBEL plant response rating, 0 to 100 scale","[4]; postemergence, 62 g a.i./ha",20
same,"AMBEL plant response rating, 0 to 100 scale","[4]; preemergence, 8 g a.i./ha",0
same,"AMBEL plant response rating, 0 to 100 scale","[4]; preemergence, 16 g a.i./ha",0
same,"AMBEL plant response rating, 0 to 100 scale","[4]; preemergence, 31 g a.i./ha",0
same,"AMBEL plant response rating, 0 to 100 scale","[4]; preemergence, 62 g a.i./ha",15
same,"AMATU plant response rating, 0 to 100 scale","[5]; postemergence, 8 g a.i./ha",43
same,"AMATU plant response rating, 0 to 100 scale","[5]; postemergence, 16 g a.i./ha",55
same,"AMATU plant response rating, 0 to 100 scale","[5]; postemergence, 31 g a.i./ha",75
same,"AMATU plant response rating, 0 to 100 scale","[5]; postemergence, 62 g a.i./ha",83
same,"AMATU plant response rating, 0 to 100 scale","[5]; preemergence, 8 g a.i./ha",20
same,"AMATU plant response rating, 0 to 100 scale","[5]; preemergence, 16 g a.i./ha",79
same,"AMATU plant response rating, 0 to 100 scale","[5]; preemergence, 31 g a.i./ha",100
same,"AMATU plant response rating, 0 to 100 scale","[5]; preemergence, 62 g a.i./ha",100
same,"SETFA plant response rating, 0 to 100 scale","[6]; postemergence, 8 g a.i./ha",5
same,"SETFA plant response rating, 0 to 100 scale","[6]; postemergence, 16 g a.i./ha",5
same,"SETFA plant response rating, 0 to 100 scale","[6]; postemergence, 31 g a.i./ha",8
same,"SETFA plant response rating, 0 to 100 scale","[6]; postemergence, 62 g a.i./ha",6
same,"SETFA plant response rating, 0 to 100 scale","[6]; preemergence, 8 g a.i./ha",8
same,"SETFA plant response rating, 0 to 100 scale","[6]; preemergence, 16 g a.i./ha",64
same,"SETFA plant response rating, 0 to 100 scale","[6]; preemergence, 31 g a.i./ha",95
same,"SETFA plant response rating, 0 to 100 scale","[6]; preemergence, 62 g a.i./ha",100
same,"ERICA plant response rating, 0 to 100 scale","[7]; postemergence, 8 g a.i./ha",0
same,"ERICA plant response rating, 0 to 100 scale","[7]; postemergence, 16 g a.i./ha",0
same,"ERICA plant response rating, 0 to 100 scale","[7]; postemergence, 31 g a.i./ha",0
same,"ERICA plant response rating, 0 to 100 scale","[7]; postemergence, 62 g a.i./ha",5
same,"ERICA plant response rating, 0 to 100 scale","[7]; preemergence, 8 g a.i./ha",0
same,"ERICA plant response rating, 0 to 100 scale","[7]; preemergence, 16 g a.i./ha",0
same,"ERICA plant response rating, 0 to 100 scale","[7]; preemergence, 31 g a.i./ha",0
same,"ERICA plant response rating, 0 to 100 scale","[7]; preemergence, 62 g a.i./ha",13
